From ChEMBL document CHEMBL5038618, “Discovery of PT-65 as a highly potent and selective Proteolysis-targeting chimera degrader of GSK3 for treating Alzheimer's disease” (Eur J Med Chem, 2021)

Key:
[1] = target: T1, Protein cereblon/Glycogen synthase kinase-3 alpha (Homo sapiens, UniProt P49840+Q96SW2); assay: Protac activity at CRBN/GSK3alpha in human SH-SY5Y cells assessed as induction of GSK3alpha protein degradation at 1 uM measured after 24 hrs; format: cell-based
Target sequence in this assay (P49840 2-483 limits assumed): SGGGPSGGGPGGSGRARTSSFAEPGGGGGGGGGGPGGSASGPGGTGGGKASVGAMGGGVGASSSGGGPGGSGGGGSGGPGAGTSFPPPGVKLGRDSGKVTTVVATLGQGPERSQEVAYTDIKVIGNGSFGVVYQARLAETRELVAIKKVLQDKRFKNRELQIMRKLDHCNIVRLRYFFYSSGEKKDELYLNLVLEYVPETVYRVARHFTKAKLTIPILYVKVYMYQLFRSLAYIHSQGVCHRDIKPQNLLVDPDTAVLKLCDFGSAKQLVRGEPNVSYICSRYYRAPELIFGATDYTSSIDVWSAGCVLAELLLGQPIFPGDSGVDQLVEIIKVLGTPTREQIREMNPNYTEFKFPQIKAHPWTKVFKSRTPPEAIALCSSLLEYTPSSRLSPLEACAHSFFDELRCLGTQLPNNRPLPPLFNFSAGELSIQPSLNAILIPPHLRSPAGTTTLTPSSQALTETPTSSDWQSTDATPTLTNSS
Target sequence in this assay (Q96SW2 whole entry partner): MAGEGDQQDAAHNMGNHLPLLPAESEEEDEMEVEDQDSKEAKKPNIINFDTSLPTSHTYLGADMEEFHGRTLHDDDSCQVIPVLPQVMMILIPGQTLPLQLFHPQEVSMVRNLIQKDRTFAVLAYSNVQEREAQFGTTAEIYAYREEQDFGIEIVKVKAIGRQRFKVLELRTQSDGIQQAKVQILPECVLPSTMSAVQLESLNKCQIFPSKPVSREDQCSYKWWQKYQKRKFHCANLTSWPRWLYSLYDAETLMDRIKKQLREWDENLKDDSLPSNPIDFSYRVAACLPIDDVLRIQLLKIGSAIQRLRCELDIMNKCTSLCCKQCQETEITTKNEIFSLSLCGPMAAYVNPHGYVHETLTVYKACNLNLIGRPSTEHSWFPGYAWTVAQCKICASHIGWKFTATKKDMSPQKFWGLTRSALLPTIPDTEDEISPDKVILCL

[2] = target: T2, Protein cereblon/Glycogen synthase kinase-3 beta (Homo sapiens, UniProt P49841+Q96SW2); assay: Protac activity at CRBN/GSK3beta in human SH-SY5Y cells assessed as induction of GSK3beta degradation at 1 uM measured after 24 hrs; format: cell-based
Target sequence in this assay (P49841 whole entry, looked up): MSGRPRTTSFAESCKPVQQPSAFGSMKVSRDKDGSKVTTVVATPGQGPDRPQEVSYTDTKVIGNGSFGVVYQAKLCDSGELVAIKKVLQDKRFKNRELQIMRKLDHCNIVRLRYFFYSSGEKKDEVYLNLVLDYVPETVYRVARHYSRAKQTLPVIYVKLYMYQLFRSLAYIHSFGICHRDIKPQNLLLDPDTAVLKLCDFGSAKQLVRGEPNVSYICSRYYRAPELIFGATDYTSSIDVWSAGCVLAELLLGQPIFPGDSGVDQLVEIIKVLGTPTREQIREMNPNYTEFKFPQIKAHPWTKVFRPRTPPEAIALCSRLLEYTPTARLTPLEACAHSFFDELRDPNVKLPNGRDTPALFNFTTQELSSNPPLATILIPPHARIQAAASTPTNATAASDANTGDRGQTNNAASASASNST
Target sequence in this assay (Q96SW2 whole entry, looked up): as the sequence (Q96SW2 whole entry partner) above

[3] = target: T1, Protein cereblon/Glycogen synthase kinase-3 alpha; assay: Protac activity at CRBN/GSK3alpha in human SH-SY5Y cells assessed as induction of GSK3alpha degradation at 0.1 uM measured after 24 hrs; format: cell-based
Target sequence in this assay (P49840 2-483 limits assumed): as the sequence (P49840 2-483 limits assumed) above
Target sequence in this assay (Q96SW2 whole entry partner): as the sequence (Q96SW2 whole entry partner) above

[4] = target: T2, Protein cereblon/Glycogen synthase kinase-3 beta; assay: Protac activity at CRBN/GSK3beta in human SH-SY5Y cells assessed as induction of GSK3beta degradation at 0.1 uM measured after 24 hrs; format: cell-based
Target sequence in this assay (P49841 whole entry, looked up): as the sequence (P49841 whole entry, looked up) above
Target sequence in this assay (Q96SW2 whole entry, looked up): as the sequence (Q96SW2 whole entry partner) above

[5] = target: T1, Protein cereblon/Glycogen synthase kinase-3 alpha; assay: Protac activity at CRBN/GSK3alpha in human SH-SY5Y cells assessed as induction of GSK3alpha protein degradation measured after 24 hrs; format: cell-based
Target sequence in this assay (P49840 whole entry): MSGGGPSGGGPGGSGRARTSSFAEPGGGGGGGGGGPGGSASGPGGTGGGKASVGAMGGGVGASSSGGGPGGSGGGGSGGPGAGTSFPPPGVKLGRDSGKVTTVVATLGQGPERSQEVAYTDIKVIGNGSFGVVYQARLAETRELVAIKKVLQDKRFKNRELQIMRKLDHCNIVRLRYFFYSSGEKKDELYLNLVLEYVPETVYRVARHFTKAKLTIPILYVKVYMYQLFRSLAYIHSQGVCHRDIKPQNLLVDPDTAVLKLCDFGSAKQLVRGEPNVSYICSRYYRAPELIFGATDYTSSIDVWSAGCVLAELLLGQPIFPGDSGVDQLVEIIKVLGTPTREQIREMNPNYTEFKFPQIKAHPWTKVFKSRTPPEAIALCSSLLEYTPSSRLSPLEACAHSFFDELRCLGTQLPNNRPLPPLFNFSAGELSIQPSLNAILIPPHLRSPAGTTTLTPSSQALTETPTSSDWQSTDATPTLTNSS
Target sequence in this assay (Q96SW2 whole entry): as the sequence (Q96SW2 whole entry partner) above

[6] = target: T2, Protein cereblon/Glycogen synthase kinase-3 beta; assay: Protac activity at CRBN/GSK3beta in human SH-SY5Y cells assessed as induction of GSK3beta degradation measured after 24 hrs; format: cell-based
Target sequence in this assay (P49841 whole entry): as the sequence (P49841 whole entry, looked up) above
Target sequence in this assay (Q96SW2 whole entry): as the sequence (Q96SW2 whole entry partner) above

[7] = target: T1, Protein cereblon/Glycogen synthase kinase-3 alpha; assay: Protac activity at CRBN/GSK3alpha in human SH-SY5Y cells assessed as induction of GSK3alpha protein degradation at 10 uM measured after 24 hrs; format: cell-based
Target sequence in this assay (P49840 2-483 limits assumed): as the sequence (P49840 2-483 limits assumed) above
Target sequence in this assay (Q96SW2 whole entry partner): as the sequence (Q96SW2 whole entry partner) above

[8] = target: T2, Protein cereblon/Glycogen synthase kinase-3 beta; assay: Protac activity at CRBN/GSK3beta in human SH-SY5Y cells assessed as induction of GSK3beta degradation at 10 uM measured after 24 hrs; format: cell-based
Target sequence in this assay (P49841 whole entry, looked up): as the sequence (P49841 whole entry, looked up) above
Target sequence in this assay (Q96SW2 whole entry, looked up): as the sequence (Q96SW2 whole entry partner) above

SH-SY5Y [9] = assay: Induction of apoptosis in human SH-SY5Y cells assessed as live cells at 10 uM preincubated for 2 hrs followed by coincubation with Abeta42 and measured after 72 hrs by Annexin V-FITC/propidium iodide staining based flow cytometry (Rvb=94.8%); format: functional; conditions: time 74 hrs
SH-SY5Y [10] = assay: Induction of apoptosis in human SH-SY5Y cells assessed as late apoptotic cells at 10 uM preincubated for 2 hrs followed by coincubation with Abeta42 and measured after 72 hrs by Annexin V-FITC/propidium iodide staining based flow cytometry (Rvb=3.5%); format: functional; conditions: time 74 hrs
SH-SY5Y [11] = assay: Induction of apoptosis in human SH-SY5Y cells assessed as necrotic cells at 10 uM preincubated for 2 hrs followed by coincubation with Abeta42 and measured after 72 hrs by Annexin V-FITC/propidium iodide staining based flow cytometry (Rvb=0.7%); format: functional; conditions: time 74 hrs
SH-SY5Y [12] = assay: Induction of apoptosis in human SH-SY5Y cells assessed as early apoptotic cells at 10 uM preincubated for 2 hrs followed by coincubation with Abeta42 and measured after 72 hrs by Annexin V-FITC/propidium iodide staining based flow cytometry (Rvb=1%); format: functional; conditions: time 74 hrs

| Activity [1] | Activity [2] | Activity [3] | Activity [4] | SMILES | also measured |
| --- | --- | --- | --- | --- | --- |
| 46.1% | 25.5% |  |  | COc1ccc(-c2ocnc2C(=O)NCCCc2cn(CCOCCOCCNc3cccc4c3C(=O)N(C3CCC(=O)NC3=O)C4=O)nn2)cc1I (stereo not given) |  |
| 46.5% | 25.9% |  |  | COc1ccc(-c2ocnc2C(=O)NCCCc2cn(CCOCCOCCOCCOCCNc3cccc4c3C(=O)N(C3CCC(=O)NC3=O)C4=O)nn2)cc1I (stereo not given) |  |
| 55.6% | 56.5% |  |  | COc1ccc(-c2ocnc2C(=O)NCCCc2cn(CCOCCOCCOCCOCCOCCNc3cccc4c3C(=O)N(C3CCC(=O)NC3=O)C4=O)nn2)cc1I (stereo not given) |  |
| < 5% | < 5% |  |  | COc1ccc(-c2ocnc2C(=O)NCCCc2cn(CCOCCOCCOCCNC(=O)CNc3cccc4c3CN(C3CCC(=O)NC3=O)C4=O)nn2)cc1Cl (stereo not given) | Activity [7]: < 5%; Activity [8]: 35.8% |
| 43.8% | 28.2% |  |  | COc1ccc(-c2ocnc2C(=O)NCCCc2cn(CCOCCOCCNc3cccc4c3C(=O)N(C3CCC(=O)NC3=O)C4=O)nn2)cc1Cl (stereo not given) |  |
| 56.2% | 54.6% |  |  | COc1ccc(-c2ocnc2C(=O)NCCCc2cn(CCOCCOCCOCCOCCOCCNc3cccc4c3C(=O)N(C3CCC(=O)NC3=O)C4=O)nn2)cc1Cl (stereo not given) | Activity [7]: 84.6%; Activity [8]: 85.2% |
| 69.5% | 49.2% |  |  | COc1ccc(-c2ocnc2C(=O)NCCCc2cn(CCOCCOCCOCCOCCNc3cccc4c3C(=O)N(C3CCC(=O)NC3=O)C4=O)nn2)cc1Cl (stereo not given) |  |
| 60.9% | 22.8% |  |  | COc1ccc(-c2ocnc2C(=O)NCCCc2cn(CCOCCOCCOCCNc3cccc4c3C(=O)N(C3CCC(=O)NC3=O)C4=O)nn2)cc1I (stereo not given) |  |
| 60.7% | 88.8% |  |  | COc1ccc(-c2ocnc2C(=O)NCCCc2cn(CCOCCOCCOCCOCCOCCOCCNc3cccc4c3C(=O)N(C3CCC(=O)NC3=O)C4=O)nn2)cc1Cl (stereo not given) |  |
| 62.4% | 36.8% |  |  | COc1ccc(-c2ocnc2C(=O)NCCCc2cn(CCOCCOCCOCCNc3cccc4c3C(=O)N(C3CCC(=O)NC3=O)C4=O)nn2)cc1Cl (stereo not given) | Activity [7]: 89.9%; Activity [8]: 73.3% |

The next lines start with the compound.

| SMILES | Activity [1] | Activity [2] | Activity [3] | Activity [4] | also measured |
| --- | --- | --- | --- | --- | --- |
| Nc1ncc(-c2ccc(S(=O)(=O)N3CCN(Cc4cn(CCOCCOCCOCCNC(=O)CNc5cccc6c5CN(C5CCC(=O)NC5=O)C6=O)nn4)CC3)cc2)nc1C(=O)Nc1cccnc1 (stereo not given) | < 5% | < 5% |  |  |  |
| Nc1ncc(-c2ccc(S(=O)(=O)N3CCN(CCc4cn(CCOCCOCCOCCOCCOCCNc5cccc6c5C(=O)N(C5CCC(=O)NC5=O)C6=O)nn4)CC3)cc2)nc1C(=O)Nc1cccnc1 (stereo not given) | 87.8% | 81.3% | 68.1% | 61.6% |  |
| Nc1ncc(-c2ccc(S(=O)(=O)N3CCN(Cc4cn(CCOCCOCCOCCOCCNc5cccc6c5C(=O)N(C5CCC(=O)NC5=O)C6=O)nn4)CC3)cc2)nc1C(=O)Nc1cccnc1 (stereo not given) | 79.5% | 65% | 42% | 25.7% |  |
| Nc1ncc(-c2ccc(S(=O)(=O)N3CCN(CCCCc4cn(CCOCCOCCOCCOCCNc5cccc6c5C(=O)N(C5CCC(=O)NC5=O)C6=O)nn4)CC3)cc2)nc1C(=O)Nc1cccnc1 (stereo not given) | 90.3% | 84.4% | 68.5% | 63.7% | DC50 [5]: 0.0382 µM; DC50 [6]: 0.11 µM |
| Nc1ncc(-c2ccc(S(=O)(=O)N3CCN(Cc4cn(CCOCCOCCNc5cccc6c5C(=O)N(C5CCC(=O)NC5=O)C6=O)nn4)CC3)cc2)nc1C(=O)Nc1cccnc1 (stereo not given) | 68.9% | 39.6% | 46.9% | 30.5% |  |
| Nc1ncc(-c2ccc(S(=O)(=O)N3CCN(Cc4cn(CCOCCOCCOCCOCCOCCNc5cccc6c5C(=O)N(C5CCC(=O)NC5=O)C6=O)nn4)CC3)cc2)nc1C(=O)Nc1cccnc1 (stereo not given) | 77.2% | 63.8% | 47.4% | 28.9% | Activity [7]: 65.9%; Activity [8]: 74.5% |
| COc1ccc(-c2ocnc2C(=O)NCCCn2cc(COCCOCCOCCOc3cccc4c3CN(C3CCC(=O)NC3=O)C4=O)nn2)cc1Cl (stereo not given) | 38.7% | 14.5% |  |  | Activity [7]: 76.4%; Activity [8]: 37.3% |
| Nc1ncc(-c2ccc(S(=O)(=O)N3CCN(CCc4cn(CCOCCOCCOCCOCCOCCOCCNc5cccc6c5C(=O)N(C5CCC(=O)NC5=O)C6=O)nn4)CC3)cc2)nc1C(=O)Nc1cccnc1 (stereo not given) | 93.9% | 86% | 66.3% | 55.9% |  |
| Nc1ncc(-c2ccc(S(=O)(=O)N3CCN(CCCCc4cn(CCOCCOCCOCCOCCOCCOCCNc5cccc6c5C(=O)N(C5CCC(=O)NC5=O)C6=O)nn4)CC3)cc2)nc1C(=O)Nc1cccnc1 (stereo not given) | 91.4% | 87% | 71.9% | 56.7% | DC50 [5]: 0.0404 µM; DC50 [6]: 0.0666 µM |
| Nc1ncc(-c2ccc(S(=O)(=O)N3CCN(CCCCc4cn(CCOCCOCCOCCNc5cccc6c5C(=O)N(C5CCC(=O)NC5=O)C6=O)nn4)CC3)cc2)nc1C(=O)Nc1cccnc1 (stereo not given) | 93.8% | 89.7% | 69.3% | 54.6% |  |
| Nc1ncc(-c2ccc(S(=O)(=O)N3CCN(CCc4cn(CCOCCOCCNc5cccc6c5C(=O)N(C5CCC(=O)NC5=O)C6=O)nn4)CC3)cc2)nc1C(=O)Nc1cccnc1 (stereo not given) | 95.2% | 79.5% | 61.1% | 41.9% |  |
| Nc1ncc(-c2ccc(S(=O)(=O)N3CCN(Cc4cn(CCOCCOCCOCCNc5cccc6c5C(=O)N(C5CCC(=O)NC5=O)C6=O)nn4)CC3)cc2)nc1C(=O)Nc1cccnc1 (stereo not given) | 75.6% | 46.6% | 45.4% | 29.9% | Activity [7]: 86.4%; Activity [8]: 80.2% |
| Cn1sc(=O)n(Cc2ccccc2)c1=O |  |  |  |  | Activity (SH-SY5Y [9]): 92.4%; Activity (SH-SY5Y [10]): 5.3%; Activity (SH-SY5Y [11]): 1.1%; Activity (SH-SY5Y [12]): 1.3% |
| Nc1ncc(-c2ccc(S(=O)(=O)N3CCN(CCc4cn(CCOCCOCCOCCOCCNc5cccc6c5C(=O)N(C5CCC(=O)NC5=O)C6=O)nn4)CC3)cc2)nc1C(=O)Nc1cccnc1 (stereo not given) | 91.8% | 83.1% | 63.8% | 55.9% |  |
| Nc1ncc(-c2ccc(S(=O)(=O)N3CCN(CCCCc4cn(CCOCCOCCNc5cccc6c5C(=O)N(C5CCC(=O)NC5=O)C6=O)nn4)CC3)cc2)nc1C(=O)Nc1cccnc1 (stereo not given) | 95.1% | 88.3% | 70.9% | 38.2% |  |
| COc1ccc(-c2ocnc2C(=O)NCCCn2cc(COCCOCCOCCOCC(=O)N[C@@H](C(=O)N3C[C@H](O)C[C@H]3C(=O)NCc3ccc(-c4scnc4C)cc3)C(C)(C)C)nn2)cc1Cl | < 5% | < 5% |  |  | Activity [7]: < 5%; Activity [8]: < 5% |
| Nc1ncc(-c2ccc(S(=O)(=O)N3CCN(CCc4cn(CCOCCOCCOCCNc5cccc6c5C(=O)N(C5CCC(=O)NC5=O)C6=O)nn4)CC3)cc2)nc1C(=O)Nc1cccnc1 (stereo not given) | 90.7% | 79.1% | 65% | 51.6% |  |
| COc1ccc(-c2ocnc2C(=O)NCCCn2cc(CCCCC(=O)N[C@@H](C(=O)N3C[C@H](O)C[C@H]3C(=O)NCc3ccc(-c4scnc4C)cc3)C(C)(C)C)nn2)cc1Cl | < 5% | < 5% |  |  | Activity [7]: < 5%; Activity [8]: < 5% |
| COc1ccc(-c2ocnc2C(=O)NCCCc2cn(CCOCCOCCOCCOCCOCCOCCNc3cccc4c3C(=O)N(C3CCC(=O)NC3=O)C4=O)nn2)cc1I (stereo not given) | 25.2% | 50.1% |  |  |  |
| Nc1ncc(-c2ccc(S(=O)(=O)N3CCN(Cc4cn(CCOCCOCCOCCOCCOCCOCCNc5cccc6c5C(=O)N(C5CCC(=O)NC5=O)C6=O)nn4)CC3)cc2)nc1C(=O)Nc1cccnc1 (stereo not given) | 75.4% | 61.3% | 29.7% | 15.2% |  |
